According to patent US11759462B2, “Spirocyclic compounds as tryptophan hydroxylase inhibitors” (priority 2013, dated 2023):
pIC50: −log10 of the molar value.

Target: T1, Recombinant human TPH1 (MBP tagged) (Homo sapiens, UniProt P17752)
T1 construct: cloning full length human TPH1 cDNA in to a bacterial pMAL-c5E expression vector; made in house; host or cells: E. coli BL21 (DE3)
T1 sequence (P17752 1-444): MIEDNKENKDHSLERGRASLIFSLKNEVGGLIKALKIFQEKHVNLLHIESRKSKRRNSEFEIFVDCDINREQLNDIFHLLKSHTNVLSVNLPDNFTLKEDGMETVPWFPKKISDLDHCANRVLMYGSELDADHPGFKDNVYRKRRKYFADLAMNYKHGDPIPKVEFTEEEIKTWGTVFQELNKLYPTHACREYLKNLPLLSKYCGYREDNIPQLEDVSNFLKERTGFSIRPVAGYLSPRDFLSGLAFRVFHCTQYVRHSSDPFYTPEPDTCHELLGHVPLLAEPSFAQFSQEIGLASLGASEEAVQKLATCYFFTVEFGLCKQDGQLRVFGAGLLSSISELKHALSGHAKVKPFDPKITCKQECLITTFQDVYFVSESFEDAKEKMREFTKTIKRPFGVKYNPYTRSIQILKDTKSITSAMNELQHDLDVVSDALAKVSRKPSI
Assay: TPH1 in vitro inhibition assay (kinetic fluorescence)
Assay type: biochemical
Settings: read-out: TPH1 Range (TPH1 inhibition IC50)
Procedure, shortened: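 Final mix: 15 nM MBP-TPH1, 30 μM Trp, 36 μM 6-methyltetrahydropterin, 25 μM ferrous ammonium sulfate, 50 mM MES pH 7.1, 1% DMSO, room temperature.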

Row | pIC50 | Structure (SMILES)
1 | 5.52 to 6.52 | COc1ccc(F)cc1-c1ccc([C@@H](Oc2cc(N3CCC4(CC3)CN[C@H](C(=O)O)C4)nc(N)n2)C(F)(F)F)cc1 [Example 55da, (S)-8-(2-amino-6-((R)-2,2,2-trifluoro-1-(5′-fluoro-2′-methoxy-[1,1′-biphenyl]-4-yl)ethoxy)pyrimidin-4-yl)-2,8-diazaspiro[4.5]decane-3-carboxylic acid]
2 | 5.52 to 6.52 | Nc1nc(O[C@H](c2ccc(-c3cccc(C(=O)O)c3)cc2)C(F)(F)F)cc(N2CCC3(CC2)CN[C@H](C(=O)O)C3)n1 [Example 55bq, (S)-8-(2-amino-6-((R)-1-(3′-carboxy-[1,1′-biphenyl]-4-yl)-2,2,2-trifluoroethoxy)pyrimidin-4-yl)-2,8-diazaspiro[4.5]decane-3-carboxylic acid]
3 | 6.52 to 7.30 | Nc1nc(O[C@H](c2ccccc2-c2cccc(F)c2)C(F)(F)F)cc(N2CCC3(CC2)CN[C@H](C(=O)O)C3)n1 [Example 42b, (S)-8-(2-amino-6-((R)-2,2,2-trifluoro-1-(3′-fluoro-[1,1′-biphenyl]-2-yl)ethoxy)pyrimidin-4-yl)-2,8-diazaspiro[4.5]decane-3-carboxylic acid]
4 | 5.52 to 6.52 | Cc1cccc(C)c1-c1ccc([C@@H](Oc2cc(N3CCC4(CC3)CN[C@H](C(=O)O)C4)nc(N)n2)C(F)(F)F)cc1 [Example 55cg, (S)-8-(2-amino-6-((R)-1-(2′,6′-dimethyl-[1,1′-biphenyl]-4-yl)-2,2,2-trifluoroethoxy)pyrimidin-4-yl)-2,8-diazaspiro[4.5]decane-3-carboxylic acid]
5 | 5.52 to 6.52 | Nc1nc(O[C@H](c2ccc(-c3ccc(Cl)cc3)cc2)C(F)(F)F)cc(N2CCC3(CC2)CN[C@H](C(=O)O)C3)n1 [Example 55cy, (S)-8-(2-amino-6-((R)-1-(4′-chloro-[1,1′-biphenyl]-4-yl)-2,2,2-trifluoroethoxy)pyrimidin-4-yl)-2,8-diazaspiro[4.5]decane-3-carboxylic acid]
6 | 6.52 to 7.30 | CS(=O)(=O)c1cccc(-c2cc(Cl)ccc2COc2cc(N3CCC4(CC3)CN[C@H](C(=O)O)C4)nc(N)n2)c1 [Example 62, (S)-8-(2-amino-6-((5-chloro-3′-(methylsulfonyl)-[1,1′-biphenyl]-2-yl)methoxy)pyrimidin-4-yl)-2,8-diazaspiro[4.5]decane-3-carboxylic acid]
7 | > 7.30 | Cc1ccn(-c2cc(-c3cccc(F)c3)ccc2[C@@H](Oc2cc(N3CCC4(CC3)CN[C@H](C(=O)O)C4)nc(N)n2)C(F)(F)F)n1 [Example 1ac, (S)-8-(2-amino-6-((R)-2,2,2-trifluoro-1-(3′-fluoro-3-(3-methyl-1H-pyrazol-1-yl)-[1,1′-biphenyl]-4-yl)ethoxy)pyrimidin-4-yl)-2,8-diazaspiro[4.5]decane-3-carboxylic acid]
8 | 5.00 to 5.52 | COCCOc1cc(Cl)ccc1[C@@H](Oc1cc(N2CCC3(CC2)CN[C@H](C(=O)O)C3)nc(N)n1)C(F)(F)F [Example 36, (S)-8-(2-amino-6-((R)-1-(4-chloro-2-(2-methoxyethoxy)phenyl)-2,2,2-trifluoroethoxy)pyrimidin-4-yl)-2,8-diazaspiro[4.5]decane-3-carboxylic acid]
9 | 6.52 to 7.30 | Nc1nc(O[C@H](c2ccc(Cl)cc2-c2cccc(CO)c2)C(F)(F)F)cc(N2CCC3(CC2)CN[C@H](C(=O)O)C3)n1 [Example 34m, (S)-8-(2-amino-6-((R)-1-(5-chloro-3′-(hydroxymethyl)-[1,1′-biphenyl]-2-yl)-2,2,2-trifluoroethoxy)pyrimidin-4-yl)-2,8-diazaspiro[4.5]decane-3-carboxylic acid]
10 | > 7.30 | Cc1ccn(-c2cc(-c3cccc(Cl)c3)ccc2[C@@H](Oc2cc(N3CCC4(CC3)CN[C@H](C(=O)O)C4)nc(N)n2)C(F)(F)F)n1 [Example 1bk, (S)-8-(2-amino-6-((R)-1-(3′-chloro-3-(3-methyl-1H-pyrazol-1-yl)-[1,1′-biphenyl]-4-yl)-2,2,2-trifluoroethoxy)pyrimidin-4-yl)-2,8-diazaspiro[4.5]decane-3-carboxylic acid]
